Activity calls are given as the source filed them.
Legend:
[1] = biological target: Oxysterols receptor LXR-beta (Homo sapiens, UniProt P55055); type: functional, cell-based;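 note: Cell-based luminescence dose-response assay of agonist activity at LXR, run as a confirmatory counterscreen to a daf-12 agonist screen; HEK293 cells with Gal4-LXR fusion and GAL4-driven luciferase reporter; agonist potency from rising luciferase signal of a Gal4-LXR reporter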
[2] = cells
[3] = biological target: Paired box protein Pax-8 (Homo sapiens, UniProt Q06710); experiment: PAX8 transcriptional activity inhibition in RMG-I – RMG-I cells, luciferase, cherry-pick, dose response (AID 687027); type: functional, cell-based;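 note: luciferase reporter driven by Pax8 target thyroperoxidase promoter measured by SteadyGlo luminescence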
Chain of Paired box protein Pax-8 (Q06710 whole entry): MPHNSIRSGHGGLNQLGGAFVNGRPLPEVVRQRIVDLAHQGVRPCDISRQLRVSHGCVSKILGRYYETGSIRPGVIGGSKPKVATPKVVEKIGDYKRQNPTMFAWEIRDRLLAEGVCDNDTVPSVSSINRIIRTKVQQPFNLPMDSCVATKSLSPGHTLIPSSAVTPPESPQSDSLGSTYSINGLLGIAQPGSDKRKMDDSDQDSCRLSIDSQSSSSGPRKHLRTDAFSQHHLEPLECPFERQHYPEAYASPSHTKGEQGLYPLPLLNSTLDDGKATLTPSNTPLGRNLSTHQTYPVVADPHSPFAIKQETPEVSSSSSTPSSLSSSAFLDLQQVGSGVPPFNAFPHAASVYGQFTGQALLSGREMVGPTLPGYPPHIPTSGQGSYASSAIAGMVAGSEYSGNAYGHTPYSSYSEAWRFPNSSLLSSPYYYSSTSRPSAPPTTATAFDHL

[4] = OVCAR-3 cell viability loss – plate reader, dry powder samples, PAX8 inhibitor project, dose response (AID 743044); type: functional, cell-based
[5] = IGROV1 cell killing – plate reader, dry powder samples, PAX8 inhibitor project, dose response (AID 743043); type: functional, cell-based; conditions: IGROV-1
[6] = OVCAR8 cell viability loss – plate reader, dry powder samples, PAX8 project, dose response (AID 743197); type: functional, cell-based; conditions: OVCAR-8
[7] = toxicity toward immortalized ovarian surface epithelium – cell-based, plate reader, dry powder samples, cytotoxicity control for PAX8 inhibitor project, dose response (AID 743045); type: functional
[8] = biological target: FAD-linked sulfhydryl oxidase ALR (Homo sapiens, UniProt P55789); experiment: ALR-catalysed DTT oxidation blockers – biochemical, H2O2 detection, luminescence, cherry-pick, dose response (AID 493248)
Chain of FAD-linked sulfhydryl oxidase ALR (P55789 whole entry): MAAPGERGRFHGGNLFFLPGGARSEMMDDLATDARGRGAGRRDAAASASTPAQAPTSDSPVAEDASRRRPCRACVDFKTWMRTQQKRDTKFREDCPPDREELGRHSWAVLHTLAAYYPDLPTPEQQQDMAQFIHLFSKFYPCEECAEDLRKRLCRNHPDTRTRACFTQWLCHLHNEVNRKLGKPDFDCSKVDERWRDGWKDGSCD

[9] = test system: HEK293; experiment: cells; type: functional, cell-based; conditions: Homo sapiens
[10] = biological target: T1, Nuclear receptor subfamily 0 group B member 1 (Homo sapiens, UniProt P51843); experiment: Luminescence-based cell-based high throughput dose response assay for inhibitors of the orphan nuclear receptor subfamily 0, group B, member 1 (DAX1; NR0B1). [Related pubchem assays (depositor defined):AID504766, AID504790]; type: functional
T1 sequence (P51843 whole entry): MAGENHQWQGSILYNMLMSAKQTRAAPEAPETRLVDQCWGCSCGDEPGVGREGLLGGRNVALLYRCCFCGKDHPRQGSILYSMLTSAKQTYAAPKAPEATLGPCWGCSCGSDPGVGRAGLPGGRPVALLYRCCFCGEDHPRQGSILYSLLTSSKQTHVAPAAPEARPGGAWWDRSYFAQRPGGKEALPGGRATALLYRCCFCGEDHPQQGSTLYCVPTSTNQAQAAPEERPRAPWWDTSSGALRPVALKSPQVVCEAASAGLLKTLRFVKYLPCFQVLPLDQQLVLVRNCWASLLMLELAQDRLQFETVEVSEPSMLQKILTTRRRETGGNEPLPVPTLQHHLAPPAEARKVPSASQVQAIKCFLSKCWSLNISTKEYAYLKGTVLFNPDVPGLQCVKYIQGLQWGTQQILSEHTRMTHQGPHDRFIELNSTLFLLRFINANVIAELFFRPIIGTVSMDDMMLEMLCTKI

[11] = cytotoxicity in MITF-independent A375 cells – cell-based, CellTiter-Glo luminescence, dry powder, set 4, counter-screen for MITF inhibitor project, dose response (AID 624364); type: functional; conditions: A-375;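 note: A375 melanoma cells are MITF independent so this is a counter screen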
[12] = viability loss in MITF-independent A375 cells – cell-based, CellTiter-Glo luminescence, dry powder, set 2, counter-screen for MITF inhibitor project, dose response (AID 624489); type: functional; conditions: A-375;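 note: actives are compounds lowering A375 viability meaning general cytotoxicity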
[13] = biological target: Kallikrein-7 (Homo sapiens, UniProt P49862); experiment: Fluorescence Intensity-based biochemical primary high throughput dose response assay to identify activators of kallikrein-7 (K7) zymogen.
Chain of Kallikrein-7 (P49862 whole entry): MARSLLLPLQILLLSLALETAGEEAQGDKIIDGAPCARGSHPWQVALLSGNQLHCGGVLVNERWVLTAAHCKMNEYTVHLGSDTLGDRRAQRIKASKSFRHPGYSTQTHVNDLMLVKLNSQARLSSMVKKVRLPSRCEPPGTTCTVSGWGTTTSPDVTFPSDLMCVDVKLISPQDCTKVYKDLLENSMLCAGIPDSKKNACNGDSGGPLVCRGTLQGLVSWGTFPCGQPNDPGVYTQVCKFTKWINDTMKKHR

[14] = growth inhibition of yeast DHODH-expressing 3D7 parasites – SYBR Green, dry powder samples, dose response (AID 1159570); type: functional, cell-based;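 note: parasite growth measured after 72 hours of compound exposure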
[15] = P. falciparum Dd2 growth inhibitors, dose response, SYBR Green, cherry-picked samples (AID 1159567); type: functional, cell-based
[16] = Dd2 malaria parasite growth inhibition potency – SYBR Green, dry powder samples, dose response (AID 1159566); type: functional, cell-based;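 note: potency for growth inhibition with lower SYBR green DNA signal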
[17] = growth inhibition of PfATP4-mutant resistant parasites – NITD609-resistant line, SYBR Green, dry powder, dose response (AID 1159571); type: functional, cell-based;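 note: parasites synchronized at ring stage by sorbitol before testing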
[18] = rise of 2N DNA cells, HeLa – IC50, dose response (AID 1117349); type: functional, cell-based
[19] = rise of 4N DNA cells, HeLa – IC50, dose response (AID 1117351); type: functional, cell-based

Chain of Oxysterols receptor LXR-beta (P55055 whole entry, the tested form may be a part): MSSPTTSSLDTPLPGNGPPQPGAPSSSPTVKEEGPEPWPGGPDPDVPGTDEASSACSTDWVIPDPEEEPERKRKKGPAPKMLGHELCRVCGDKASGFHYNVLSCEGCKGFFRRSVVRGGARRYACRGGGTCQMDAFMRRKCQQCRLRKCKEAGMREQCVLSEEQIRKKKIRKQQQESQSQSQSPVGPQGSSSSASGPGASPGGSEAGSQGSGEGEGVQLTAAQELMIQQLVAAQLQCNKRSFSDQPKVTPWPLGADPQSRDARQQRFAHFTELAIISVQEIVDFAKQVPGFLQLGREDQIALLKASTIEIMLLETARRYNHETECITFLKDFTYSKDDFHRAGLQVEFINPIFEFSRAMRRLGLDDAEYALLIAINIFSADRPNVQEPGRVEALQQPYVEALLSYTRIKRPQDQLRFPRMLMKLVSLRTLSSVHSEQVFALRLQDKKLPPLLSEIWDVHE

With `Clc1ccccc1NN=Cc1ccccn1` the EC50 [1] was > 67.6 µM (inactive) and the EC50 [2] was > 67.6 µM (inactive).
With `C[C@@H]1CCCCO[C@H](CN(C)C(=O)Nc2ccc(C(F)(F)F)cc2)[C@@H](C)CN([C@@H](C)CO)C(=O)c2cc(NS(=O)(=O)c3ccc(Cl)cc3)ccc2O1` the AC50 [3] was 3.44 µM (active), the AC50 [4] was 29.1 µM (active) and the AC50 [5] was 46.1 µM (active). For the same compound, the AC50 [6] was 36.2 µM (active).
In the case of `COc1ccc(-c2ccc3c(c2)[C@H]2[C@H](CCN2S(=O)(=O)c2ccc(OC)cc2)[C@@H](CO)N3C)cc1`, the AC50 [3] is reported as 9.39 µM (active), the AC50 [7] is reported as 38.1 µM (active) and the AC50 [4] is reported as 15.6 µM (active). The AC50 [6] was 34.7 µM (active).
With `Cc1ccc(N/N=C(\C#N)C(=N)N2CCCCC2)cc1` the AC50 [8] was 0.228 µM (active), the IC50 [9] was > 0.278 µM (active) and the IC50 [10] was > 67.5 µM (inactive). The EC50 [1] was > 67.6 µM (inactive) and the EC50 [2] was > 67.6 µM (inactive).
With `C=CCNC1=C(N2CCCCC2)C(=O)c2ccccc2C1=O` the AC50 [11] was 29.1 µM (active) and the AC50 [12] was 5.82 µM (active).
For `COc1cccc2cccc(/C=N/n3cnnc3)c12`, the EC50 [13] was > 69.5 µM (inactive).
For `CCS(=O)(=O)N1CCC2(CC1)CN(S(=O)(=O)c1ccc(C)cc1)[C@@H](CO)c1[nH]c3cc(OC)ccc3c12`, the AC50 [14] was 1.04 µM (active), the AC50 [15] was 1.3 µM (active) and the AC50 [16] was 0.88 µM (active). For the same compound, the AC50 [17] was 0.738 µM (active).
With `COc1cccc(-c2cc(C(=O)NC3=C(Cl)C(=O)c4ccccc4C3=O)ccc2OC)c1` the AC50 [11] was > 70 µM (inactive) and the AC50 [12] was > 70 µM (inactive).
For `Nc1nc(=O)n([C@@H]2O[C@H](CO)[C@@H](O)[C@@H]2F)cc1I` [FIACITABINE], the IC50 [18] was > 10 µM (inactive) and the IC50 [19] was > 10 µM (inactive).

Source: ChEMBL document CHEMBL1201862, “PubChem BioAssay data set” (2004)
